{"source": "patent US20100168053A1", "about": "“ORAL DELIVERY SYSTEM FOR METHYLCOBALAMIN TO TREAT DISORDERS” (REVITAPOP, priority 2008, published 2010)", "test": "Onset and duration of effect of methylcobalamin administration (subject reports, QEEG)", "assay_type": "in vivo, human", "conditions": "varies between persons", "experimental": "In a person responsive to methylcobalamin, the effects of methylcobalmin administered nasally may begin to occur within minutes of administration. […] In various experiments, subjects reported feeling better in minutes and sometimes seconds. Thus, improvements can occur within the first hour of administration.\nAlthough the effects of a typical administration can last about 24 hours, every person is different. Thus, some people can become depleted of available methylcobalamin in hours or less, while others can feel the benefits for days. The dosage and frequency of methylcobalamin administration can decrease over time, particularly with changing lifestyle or eating habits. For example, reducing intake of milk and wheat products, complex carbohydrates and starches, and improvements to intestinal flora may reduce the need for methylcobalamin."}
{"smiles": "C/C1=C2/[N-][C@H]([C@H](CC(N)=O)[C@@]2(C)CCC(=O)NC[C@@H](C)OP(=O)([O-])O[C@H]2[C@@H](O)[C@@H](n3cnc4cc(C)c(C)cc43)O[C@@H]2CO)[C@]2(C)N=C(/C(C)=C3N=C(/C=C4N=C1[C@@H](CCC(N)=O)C\\4(C)C)[C@@H](CCC(N)=O)[C@]\\3(C)CC(N)=O)[C@@H](CCC(N)=O)[C@]2(C)CC(N)=O.[CH3-].[Co+3]", "note": "[methylcobalamin]", "values": [{"measurement": "duration of effects of a typical administration", "value": "about 24 hours"}]}
